These results are taken from ChEMBL document CHEMBL3870330, “Exploring the anti-biofilm activity of cinnamic acid derivatives in Candida albicans” (2016).

What all share (assay type): functional
Assay [1] relates to Candida albicans. The assay can be described thus: Antibiofilm activity against mature biofilm of Candida albicans ATCC 10231 after 24 hrs by XTT reduction assay.
The subject of assay [2] is Candida albicans. The assay can be described thus: Antibiofilm activity against Candida albicans ATCC 10231 after 24 hrs by XTT reduction assay.
Assay [3] deals with Candida albicans. Kind of assay: Antifungal activity against planktonic cells of Candida albicans ATCC 10231 after 48 hrs by microdilution assay. The following applies: ATCC 10231, 48 h.

≈ marks a conversion by molar mass, not a printed value.

On to `Cc1ncc([N+](=O)[O-])n1CCOC(=O)/C=C/c1ccccc1`, for which the MBIC50 with Candida albicans [1] was above 128 µg/mL; in the assay with Candida albicans [2] it was “>=32 - 128 ug ml-1”. The compound also showed an MIC50 against Candida albicans [3] of at least 128 µg/mL.
For `O=C(/C=C/c1ccccc1)OCc1ccc([N+](=O)[O-])o1` the same measures were 64 µg/mL, 16 to 64 µg/mL and 2 to 16 µg/mL (≈ 7.32 to 58.6 µM).
Taken in the same sequence, the figures for `O=C(/C=C/c1ccccc1)N1CCN(c2ncccc2[N+](=O)[O-])CC1` were above 128 µg/mL, above 128 µg/mL and above 128 µg/mL.
For the compound `O=C(/C=C/c1ccccc1)OCc1ccco1`, the results for the MBIC50 entry with Candida albicans [1] and in the assay on Candida albicans [2] were “>=128 ug ml-1” and “>=16 - 128 ug ml-1”, respectively. The MIC50 in the assay with Candida albicans [3] lay within 64 to 128 µg/mL (≈ 280 to 561 µM).
Taken in the same sequence, the figures for `O=C(/C=C/c1ccccc1)NCCCn1ccnc1` were above 128 µg/mL, above 128 µg/mL and above 128 µg/mL.
Taken in the same sequence, the figures for `O=C(/C=C/c1ccccc1)OC(Cn1cncn1)(Cn1cncn1)c1ccc(F)cc1F` were above 32 to 128 µg/mL, 4 to 128 µg/mL and 0.5 to 64 µg/mL (≈ 1.15 to 147 µM).
For `O=C(/C=C/c1ccccc1)N1CCN(c2ccc([N+](=O)[O-])cc2)CC1` the same measures were above 32 to 128 µg/mL, above 128 µg/mL and 32 to 128 µg/mL (≈ 94.8 to 379 µM).
For the compound `O=C(/C=C/c1ccccc1)OC(Cn1ccnc1)c1ccc(Cl)cc1Cl` (stereo unspecified), the MBIC50 in the assay with Candida albicans [1] was 8 to 64 µg/mL; in the assay with Candida albicans [2] it was 2 to 64 µg/mL. In addition, in the assay with Candida albicans [3], the MIC50 was in the range of 2 to 16 µg/mL (≈ 5.16 to 41.3 µM).
Taken in the same sequence, the figures for `O=C(/C=C/c1ccccc1)NCCc1c[nH]c2ccccc12` were above 128 µg/mL, 8 to 128 µg/mL and above 128 µg/mL.
For `O=C(/C=C/c1ccccc1)Nc1nc2ccc([N+](=O)[O-])cc2s1` the same measures were “>=64 - 128 ug ml-1”, “>=64 - 128 ug ml-1” and above 128 µg/mL.
Taken in the same sequence, the figures for `O=C(O)/C=C/c1ccccc1` [CINNAMIC ACID] were above 128 µg/mL, above 128 µg/mL and above 128 µg/mL.
In the case of `OC(Cn1cncn1)(Cn1cncn1)c1ccc(F)cc1F` [FLUCONAZOLE], the results for the MBIC50 in the assay with Candida albicans [1] and with Candida albicans [2] were above 128 µg/mL and 128 µg/mL, respectively. The MIC50 against Candida albicans [3] was 0.5 µg/mL (≈ 1.63 µM).
